In US20250346597A1, “CONDENSED HETEROCYCLIC COMPOUNDS AS INHIBITOR OF DIACYLGLYCEROL KINASES” (BEONE MEDICINES I GMBH, priority 2023, published 2025):

Columns and labels:
DGKα = DGKα (Homo sapiens (Human), UniProt P23743); assay: Biochemical DGK IC50 assay (ADP-Glo, lipid micelle substrate), DGKα; conditions: full length DGKα […], ATP 140 μM, DAG 80 μM; also: full length DGKα 7.5 nM
Method: (§1) Enzymatic reactions of DGKζ, DGKα and DGKδ were performed using ADP-Glo assay with lipid micelle substrate. […] Full length DGKα (D21-10BG, SignalChem) and full length DGKδ (D23-10G, SignalChem) were purchased. Lipid micelle was prepared by dissolving DAG (Sigma, 317505-10MG) and PS (Sigma, P7769-100MG) with chloroform which was furtherly removed by rotary evaporation. The resulted product was resuspended in buffer containing 25 mM HEPES pH 7.0, 0.5 mM EDTA and 160 mM Octyl P-D glucopyranoside by vigorous mixing and ultrasonic (IID, Scientz).
(§2) The inhibition activities testing for the compound disclosed herein were carried out at room temperature in assay buffer containing 50 mM HEPES, 10 mM MgCl2, 0.01% BSA, 0.1 mM Na3VO4, 0.005% Tween-20 and 0.01 mM CaCl2. Compounds in DMSO were dispensed into wells of a black 384 well plate (Corning 4514) using D300e digital dispenser (Tecan). […] 3 μL 2× enzyme solution was added to wells. […] After 1 hour reaction, 5 μL ADP-Glo reagent (Promga V9101) was added and incubated for 40 minutes. 10 μL Kinase Detection reagent was added and incubated for 30 minutes. Luminescence was measured on a microplate reader (PHERAstar FSX, BMG labtech). The IC50s are calculated based on inhibition of enzyme activity in the presence of increasing concentrations of compounds.

DGKζ = DGKζ (Homo sapiens (Human), UniProt Q13574); assay: Biochemical DGK IC50 assay (ADP-Glo, lipid micelle substrate), DGKζ; conditions: full length DGKζ 0.5 nM, ATP 140 μM, DAG 80 μM
DGKζ, sequence (Q13574 other isoform, or with tags, fused parts or gaps): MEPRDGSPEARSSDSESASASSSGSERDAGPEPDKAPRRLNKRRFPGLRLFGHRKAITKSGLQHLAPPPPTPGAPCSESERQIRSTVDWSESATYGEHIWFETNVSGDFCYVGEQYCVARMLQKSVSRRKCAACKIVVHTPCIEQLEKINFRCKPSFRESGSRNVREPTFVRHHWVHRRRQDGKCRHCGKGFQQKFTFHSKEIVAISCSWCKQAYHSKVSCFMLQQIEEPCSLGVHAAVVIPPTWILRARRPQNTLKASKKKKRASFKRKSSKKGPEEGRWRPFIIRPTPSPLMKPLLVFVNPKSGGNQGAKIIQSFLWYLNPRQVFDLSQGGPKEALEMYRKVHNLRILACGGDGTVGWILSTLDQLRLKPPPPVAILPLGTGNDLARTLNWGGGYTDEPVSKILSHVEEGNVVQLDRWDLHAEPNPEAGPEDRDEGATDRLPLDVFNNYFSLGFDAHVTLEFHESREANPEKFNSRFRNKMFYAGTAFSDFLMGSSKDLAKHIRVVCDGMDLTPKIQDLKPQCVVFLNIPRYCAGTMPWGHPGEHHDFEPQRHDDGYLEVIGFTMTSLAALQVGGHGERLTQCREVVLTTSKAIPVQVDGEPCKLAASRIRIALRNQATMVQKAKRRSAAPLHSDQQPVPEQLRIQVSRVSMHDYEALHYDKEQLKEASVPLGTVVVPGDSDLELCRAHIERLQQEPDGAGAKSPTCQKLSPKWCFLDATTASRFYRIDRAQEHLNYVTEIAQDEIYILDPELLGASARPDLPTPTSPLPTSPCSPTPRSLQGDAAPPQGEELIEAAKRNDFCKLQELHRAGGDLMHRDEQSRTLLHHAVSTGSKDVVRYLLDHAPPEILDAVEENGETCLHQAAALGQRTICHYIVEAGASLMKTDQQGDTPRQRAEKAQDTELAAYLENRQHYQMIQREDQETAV
Method: as §1, §2
Human His-TEV-DGK-zeta-pFastBac1 and human baculovirus samples was generated using the Bac-to-Bac baculovirus expression system (Invitrogen) according to the manufacturer's protocol. The DNA used for expression of DGK-zeta, have SEQ ID Nos: 1. Baculovirus amplification was achieved using infected SF9 cells at 1:2000 virus/cells ratios, and grown for 96 hours at 27° C. post-transfected.
The expression scaled up for each protein was carried out in the […] from CORNING. 4 L of 3×10^6 cells/mL Sf9 cells (Expression System, Invitrogen) grown in SF900™ II SFM insect medium (Expression System) was infected with virus stock at 1:200 virus/cells ratio, and grown for 48 hours at 27° C. post-transfection. The infected cell culture was harvested by centrifugation at 6000 rpm for 15 min 4° C. in a SORVALL LYNX6000 centrifuge. The cell pellets were stored at −80° C.
Full length human DGKζ produced as described above, was purified from Sf9 baculovirus-infected insect cell paste. The cells were lysed using sonication method, and the lysates were clarified by centrifugation.

DGKα, sequence (P23743 whole entry): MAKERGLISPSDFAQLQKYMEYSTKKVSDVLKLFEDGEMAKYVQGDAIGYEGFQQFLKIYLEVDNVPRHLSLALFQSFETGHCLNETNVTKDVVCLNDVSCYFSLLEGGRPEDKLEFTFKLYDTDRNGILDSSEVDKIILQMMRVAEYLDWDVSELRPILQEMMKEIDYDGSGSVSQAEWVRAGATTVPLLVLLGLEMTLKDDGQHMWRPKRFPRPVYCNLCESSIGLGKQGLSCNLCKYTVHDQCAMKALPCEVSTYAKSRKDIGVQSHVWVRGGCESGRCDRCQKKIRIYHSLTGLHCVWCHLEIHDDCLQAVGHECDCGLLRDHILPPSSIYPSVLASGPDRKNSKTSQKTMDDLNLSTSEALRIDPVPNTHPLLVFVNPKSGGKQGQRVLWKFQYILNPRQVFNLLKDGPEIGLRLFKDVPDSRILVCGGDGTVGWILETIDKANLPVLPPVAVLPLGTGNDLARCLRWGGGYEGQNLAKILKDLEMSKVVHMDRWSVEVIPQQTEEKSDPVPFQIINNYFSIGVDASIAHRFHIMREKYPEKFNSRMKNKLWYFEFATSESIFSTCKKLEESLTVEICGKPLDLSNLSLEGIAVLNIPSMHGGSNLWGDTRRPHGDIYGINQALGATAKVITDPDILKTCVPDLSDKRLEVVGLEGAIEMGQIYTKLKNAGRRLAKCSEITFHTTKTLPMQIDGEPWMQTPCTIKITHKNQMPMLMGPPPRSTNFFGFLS

SMILES	IC50 (DGKα)	IC50 (DGKζ)
CC[C@H]1CN(C(C)c2ccc3scnc3c2F)[C@H](CC)CN1c1cc(=O)n(C)c2cn(CC#N)nc12 (single isomer, unassigned) [Compound A110a]	469 nM	31 nM
CC[C@H]1CN(C(C)c2ccc3scnc3c2F)[C@H](CC)CN1c1cc(=O)n(C)c2cn(CC#N)nc12 (single isomer, unassigned) [Compound A110b]	10500 nM	1720 nM
CC#CCn1cc2c(n1)c(N1C[C@@H](CC)N(C(C)c3nc4ccccc4nc3C)C[C@@H]1C)cc(=O)n2C (single isomer, unassigned) [Compound A111a]	2540 nM	> 10000 nM
CC#CCn1cc2c(n1)c(N1C[C@@H](CC)N(C(C)c3nc4ccccc4nc3C)C[C@@H]1C)cc(=O)n2C (single isomer, unassigned) [Compound A111b]	1250 nM	55 nM
CC#CCn1cc2c(n1)c(N1C[C@@H](CC)N(C(C)c3ccc4ncsc4c3)C[C@@H]1C)cc(=O)n2C (single isomer, unassigned) [Compound A112a]	65 nM	78 nM
CC#CCn1cc2c(n1)c(N1C[C@@H](CC)N(C(C)c3ccc4ncsc4c3)C[C@@H]1C)cc(=O)n2C (single isomer, unassigned) [Compound A112b]	497 nM	> 10000 nM
CC#CCn1cc2c(n1)c(N1C[C@@H](CC)N(C(C)c3ccc4nc(C)sc4c3)C[C@@H]1CC)cc(=O)n2C (single isomer, unassigned) [Compound A114a]	32 nM	83 nM
CC#CCn1cc2c(n1)c(N1C[C@@H](CC)N(C(C)c3ccc4nc(C)sc4c3)C[C@@H]1CC)cc(=O)n2C (single isomer, unassigned) [Compound A114b]	391 nM	3200 nM
CC#CCn1cc2c(n1)c(N1C[C@@H](CC)N(C(C)c3ccc4nc(C)sc4c3)C[C@@H]1C)cc(=O)n2C (single isomer, unassigned) [Compound A115a]	269 nM	431 nM
CC#CCn1cc2c(n1)c(N1C[C@@H](CC)N(C(C)c3ccc4nc(C)sc4c3)C[C@@H]1C)cc(=O)n2C (single isomer, unassigned) [Compound A115b]	1250 nM	6490 nM
CC#CCn1cc2c(n1)c(N1C[C@@H](CC)N(C(C)c3ccc4nc(C)sc4c3F)C[C@@H]1C)cc(=O)n2C (single isomer, unassigned) [Compound A116a]	2330 nM	181 nM
CC#CCn1cc2c(n1)c(N1C[C@@H](CC)N(C(C)c3ccc4nc(C)sc4c3F)C[C@@H]1C)cc(=O)n2C (single isomer, unassigned) [Compound A116b]	21000 nM	> 10000 nM
CC[C@H]1CN(C(C)c2ccc3ncsc3n2)[C@H](CC)CN1c1nc(=O)n(C)c2cn(CC#N)nc12 (single isomer, unassigned) [Compound A126a]	1370 nM	1320 nM
CC[C@H]1CN(C(C)c2ccc3ncsc3n2)[C@H](CC)CN1c1nc(=O)n(C)c2cn(CC#N)nc12 (single isomer, unassigned) [Compound A126b]	93 nM	51 nM
CC[C@H]1CN(C(C)c2ccc(C3CC3)nc2)[C@H](CC)CN1c1nc(=O)n(C)c2cn(CC#N)nc12 (single isomer, unassigned) [Compound A127a]	357 nM	71 nM
CC[C@H]1CN(C(C)c2ccc(C3CC3)nc2)[C@H](CC)CN1c1nc(=O)n(C)c2cn(CC#N)nc12 (single isomer, unassigned) [Compound A127b]	3360 nM	3280 nM
CC[C@H]1CN(C(C)c2cc3sc(C)nc3cc2F)[C@H](CC)CN1c1nc(=O)n(C)c2cn(CC#N)nc12 (single isomer, unassigned) [Compound A128a]	375 nM	60 nM
CC[C@H]1CN(C(C)c2cc3sc(C)nc3cc2F)[C@H](CC)CN1c1nc(=O)n(C)c2cn(CC#N)nc12 (single isomer, unassigned) [Compound A128b]	4480 nM	694 nM

SMILES	IC50 (DGKα)	IC50 (DGKζ)
CC[C@H]1CN(C(C)c2ccc3nc(C)sc3n2)[C@H](CC)CN1c1nc(=O)n(C)c2cn(CC#N)nc12 (single isomer, unassigned) [Compound A129a]	2100 nM	626 nM
CC[C@H]1CN(C(C)c2ccc3nc(C)sc3n2)[C@H](CC)CN1c1nc(=O)n(C)c2cn(CC#N)nc12 (single isomer, unassigned) [Compound A129b]	192 nM	45 nM
CC[C@H]1CN(C(C)c2ccc3nc(C)sc3n2)[C@H](CC)CN1c1cc(=O)n(C)c2cn(CC#N)nc12 (single isomer, unassigned) [Compound A133a]	3280 nM	1520 nM
CC[C@H]1CN(C(C)c2ccc3nc(C)sc3n2)[C@H](CC)CN1c1cc(=O)n(C)c2cn(CC#N)nc12 (single isomer, unassigned) [Compound A133b]	61 nM	24 nM
[2H]C([2H])([2H])n1c(=O)cc(N2C[C@@H](CC)N(C(C)c3ccc4nc(C)sc4n3)C[C@@H]2CC)c2nn(CC#N)cc21 (single isomer, unassigned) [Compound A134a]	3390 nM	3920 nM
[2H]C([2H])([2H])n1c(=O)cc(N2C[C@@H](CC)N(C(C)c3ccc4nc(C)sc4n3)C[C@@H]2CC)c2nn(CC#N)cc21 (single isomer, unassigned) [Compound A134b]	108 nM	22 nM
CCC(c1ccc(C(F)(F)F)cc1)N1C[C@H](CC)N(c2cc(=O)n(C)c3cn(CC#N)nc23)C[C@H]1CC (single isomer, unassigned) [Compound A135a]	86 nM	96 nM
CCC(c1ccc(C(F)(F)F)cc1)N1C[C@H](CC)N(c2cc(=O)n(C)c3cn(CC#N)nc23)C[C@H]1CC (single isomer, unassigned) [Compound A135b]	483 nM	3750 nM
CC#CCn1cc2c(n1)c(N1C[C@@H](CC)N(C(C)c3ccc4nc(C)sc4c3F)C[C@@H]1CC)cc(=O)n2C (single isomer, unassigned) [Compound A138a]	311 nM	143 nM
CC#CCn1cc2c(n1)c(N1C[C@@H](CC)N(C(C)c3ccc4nc(C)sc4c3F)C[C@@H]1CC)cc(=O)n2C (single isomer, unassigned) [Compound A138b]	2040 nM	3280 nM
CC[C@H]1CN(C(C)c2ccc3nc(C)sc3n2)[C@H](CC)CN1c1c(C#N)c(=O)n(C)c2cn(CC#N)nc12 (single isomer, unassigned) [Compound A140a]	840 nM	3380 nM
CC[C@H]1CN(C(C)c2ccc3nc(C)sc3n2)[C@H](CC)CN1c1c(C#N)c(=O)n(C)c2cn(CC#N)nc12 (single isomer, unassigned) [Compound A140b]	93 nM	45 nM
CC#CCn1cc2c(n1)c(N1C[C@@H](CC)N(C(C)c3ccc4sc(C)nc4c3F)C[C@@H]1CC)cc(=O)n2C (single isomer, unassigned) [Compound A141a]	1390 nM	17.6 nM
CC#CCn1cc2c(n1)c(N1C[C@@H](CC)N(C(C)c3ccc4sc(C)nc4c3F)C[C@@H]1CC)cc(=O)n2C (single isomer, unassigned) [Compound A141b]	6190 nM	641 nM
[2H]C([2H])([2H])C(c1ccc2nc(C)sc2n1)N1C[C@H](CC)N(c2cc(=O)n(C([2H])([2H])[2H])c3cn(CC#N)nc23)C[C@H]1CC (single isomer, unassigned) [Compound A142a]	1580 nM	1350 nM
[2H]C([2H])([2H])C(c1ccc2nc(C)sc2n1)N1C[C@H](CC)N(c2cc(=O)n(C([2H])([2H])[2H])c3cn(CC#N)nc23)C[C@H]1CC (single isomer, unassigned) [Compound A142b]	108 nM	20 nM
CC[C@H]1CN(C(C)c2ccc3nc(COC)sc3n2)[C@H](CC)CN1c1cc(=O)n(C)c2cn(CC#N)nc12 (single isomer, unassigned) [Compound A143a]	3180 nM	2150 nM
CC[C@H]1CN(C(C)c2ccc3nc(COC)sc3n2)[C@H](CC)CN1c1cc(=O)n(C)c2cn(CC#N)nc12 (single isomer, unassigned) [Compound A143b]	153 nM	39 nM
